# In ChEMBL document CHEMBL1201862, “PubChem BioAssay data set” (2004):
#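 Where inhibition never reached the appropriate level, the endpoint shown equals the highest concentration tested. Otherwise, values were interpolated linearly from a five-concentration, 48-hour dose response in 96-well plates. GI50 marks 50% less growth.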 The source made the active and inactive calls. No stated cut-off is given here; in the data, active = GI50 up to about 1.1 µM and inactive = higher.
# Tests used:
# Experiment in all cases: growth of human tumour cells (NCI), 48 h
# 786-0 = test system: 786-0
# A498 = test system: A498
# A549 = test system: A549
# ACHN = test system: ACHN
# CCRF-CEM = test system: CCRF-CEM
# COLO 205 = test system: COLO 205
# DU-145 = test system: DU-145
# EKVX = test system: EKVX
# HCC 2998 = test system: HCC 2998
# HCT-116 = test system: HCT-116
# HCT-15 = test system: HCT-15
# HL-60 = test system: HL-60
# HOP-62 = test system: HOP-62
# HOP-92 = test system: HOP-92
# HT-29 = test system: HT-29
# IGROV-1 = test system: IGROV-1
# K562 = test system: K562
# KM12 = test system: KM12
# LOX IMVI = test system: LOX IMVI
# M14 = test system: M14
# MCF7 = test system: MCF7
# MDA-MB-231 = test system: MDA-MB-231
# MDA-MB-435 = test system: MDA-MB-435
# MDA-N = test system: MDA-N
# MOLT-4 = test system: MOLT-4
# Malme-3M = test system: Malme-3M
# NCI-H226 = test system: NCI-H226
# NCI-H23 = test system: NCI-H23
# NCI-H460 = test system: NCI-H460
# NCI-H522 = test system: NCI-H522
# NCI/ADR-RES = test system: NCI/ADR-RES
# OVCAR-3 = test system: OVCAR-3
# OVCAR-4 = test system: OVCAR-4
# OVCAR-5 = test system: OVCAR-5
# OVCAR-8 = test system: OVCAR-8
# PC-3 = test system: PC-3
# RXF 393 = test system: RXF 393
# SF-268 = test system: SF-268
# SF-295 = test system: SF-295
# SF-539 = test system: SF-539
# SK-MEL-28 = test system: SK-MEL-28
# SK-MEL-2 = test system: SK-MEL-2
# SK-MEL-5 = test system: SK-MEL-5
# SK-OV-3 = test system: SK-OV-3
# SN12C = test system: SN12C
# SNB-19 = test system: SNB-19
# SNB-75 = test system: SNB-75
# SR = test system: SR
# SW-620 = test system: SW-620
# T47D = test system: T47D
# TK-10 = test system: TK-10
# U-251 = test system: U-251
# UACC-257 = test system: UACC-257
# UACC-62 = test system: UACC-62
# UO-31 = test system: UO-31
# CAKI-1 = test system: CAKI-1
# Hs-578T = test system: Hs-578T
# RPMI-8226 = test system: RPMI-8226
smiles,measurement,setting,value
Cc1c(C)c(C)n(C2OC(CO)C(O)C(O)C2O)c(=S)c1C#N (centres undefined),GI50,786-0,> 100 µM (inactive)
same,GI50,A498,> 100 µM (inactive)
same,GI50,A549,> 100 µM (inactive)
same,GI50,ACHN,> 100 µM (inactive)
same,GI50,CCRF-CEM,> 100 µM (inactive)
same,GI50,COLO 205,> 100 µM (inactive)
same,GI50,DU-145,> 100 µM (inactive)
same,GI50,EKVX,> 100 µM (inactive)
same,GI50,HCC 2998,> 100 µM (inactive)
same,GI50,HCT-116,> 100 µM (inactive)
same,GI50,HCT-15,> 100 µM
same,GI50,HL-60,> 100 µM (inactive)
same,GI50,HOP-62,> 100 µM (inactive)
same,GI50,HOP-92,> 100 µM (inactive)
same,GI50,HT-29,> 100 µM (inactive)
same,GI50,IGROV-1,> 100 µM (inactive)
same,GI50,K562,> 100 µM (inactive)
same,GI50,KM12,> 100 µM (inactive)
same,GI50,LOX IMVI,> 100 µM (inactive)
same,GI50,M14,> 100 µM (inactive)
same,GI50,MCF7,> 100 µM (inactive)
same,GI50,MDA-MB-231,> 100 µM (inactive)
same,GI50,MDA-MB-435,> 100 µM (inactive)
same,GI50,MDA-N,> 100 µM (inactive)
same,GI50,MOLT-4,> 100 µM (inactive)
same,GI50,Malme-3M,> 100 µM (inactive)
same,GI50,NCI-H226,> 100 µM (inactive)
same,GI50,NCI-H23,> 100 µM (inactive)
same,GI50,NCI-H460,> 100 µM (inactive)
same,GI50,NCI-H522,> 100 µM (inactive)
same,GI50,NCI/ADR-RES,> 100 µM (inactive)
same,GI50,OVCAR-3,> 100 µM (inactive)
same,GI50,OVCAR-4,> 100 µM (inactive)
same,GI50,OVCAR-5,> 100 µM (inactive)
same,GI50,OVCAR-8,> 100 µM (inactive)
same,GI50,PC-3,> 100 µM (inactive)
same,GI50,RXF 393,> 100 µM (inactive)
same,GI50,SF-268,> 100 µM (inactive)
same,GI50,SF-295,> 100 µM (inactive)
same,GI50,SF-539,> 100 µM (inactive)
same,GI50,SK-MEL-28,> 100 µM (inactive)
same,GI50,SK-MEL-2,> 100 µM (inactive)
same,GI50,SK-MEL-5,> 100 µM (inactive)
same,GI50,SK-OV-3,> 100 µM (inactive)
same,GI50,SN12C,> 100 µM (inactive)
same,GI50,SNB-19,> 100 µM (inactive)
same,GI50,SNB-75,> 100 µM (inactive)
same,GI50,SR,> 100 µM (inactive)
same,GI50,SW-620,> 100 µM (inactive)
same,GI50,T47D,> 100 µM (inactive)
same,GI50,TK-10,> 100 µM (inactive)
same,GI50,U-251,> 100 µM (inactive)
same,GI50,UACC-257,> 100 µM (inactive)
same,GI50,UACC-62,> 100 µM (inactive)
same,GI50,UO-31,> 100 µM (inactive)
CC(C)OCC(O)COc1cc(=O)oc2ccccc12 (centres undefined),GI50,786-0,> 100 µM (inactive)
same,GI50,A549,> 100 µM (inactive)
same,GI50,ACHN,> 100 µM (inactive)
same,GI50,CAKI-1,> 100 µM (inactive)
same,GI50,CCRF-CEM,> 100 µM (inactive)
same,GI50,COLO 205,> 100 µM (inactive)
same,GI50,DU-145,> 100 µM (inactive)
same,GI50,EKVX,> 100 µM (inactive)
same,GI50,HCC 2998,50.4 µM (inactive)
same,GI50,HCT-116,> 100 µM (inactive)
same,GI50,HCT-15,> 100 µM
same,GI50,HL-60,> 100 µM (inactive)
same,GI50,HOP-62,> 100 µM (inactive)
same,GI50,HOP-92,> 100 µM (inactive)
same,GI50,HT-29,> 100 µM (inactive)
same,GI50,Hs-578T,> 100 µM (inactive)
same,GI50,IGROV-1,> 100 µM (inactive)
same,GI50,K562,> 100 µM (inactive)
same,GI50,KM12,> 100 µM (inactive)
same,GI50,LOX IMVI,> 100 µM (inactive)
same,GI50,M14,> 100 µM (inactive)
same,GI50,MCF7,> 100 µM (inactive)
same,GI50,MDA-MB-231,> 100 µM (inactive)
same,GI50,MDA-MB-435,> 100 µM (inactive)
same,GI50,MDA-N,> 100 µM (inactive)
same,GI50,MOLT-4,> 100 µM (inactive)
same,GI50,Malme-3M,> 100 µM (inactive)
same,GI50,NCI-H23,> 100 µM (inactive)
same,GI50,NCI-H460,> 100 µM (inactive)
same,GI50,NCI-H522,> 100 µM (inactive)
same,GI50,NCI/ADR-RES,> 100 µM (inactive)
same,GI50,OVCAR-3,> 100 µM (inactive)
same,GI50,OVCAR-4,> 100 µM (inactive)
same,GI50,OVCAR-5,> 100 µM (inactive)
same,GI50,OVCAR-8,> 100 µM (inactive)
same,GI50,PC-3,> 100 µM (inactive)
same,GI50,RPMI-8226,> 100 µM (inactive)
same,GI50,SF-268,> 100 µM (inactive)
same,GI50,SF-295,> 100 µM (inactive)
same,GI50,SK-MEL-28,> 100 µM (inactive)
same,GI50,SK-MEL-2,> 100 µM (inactive)
same,GI50,SK-MEL-5,> 100 µM (inactive)
same,GI50,SK-OV-3,> 100 µM (inactive)
same,GI50,SN12C,> 100 µM (inactive)
same,GI50,SNB-19,> 100 µM (inactive)
same,GI50,SR,> 100 µM (inactive)
same,GI50,SW-620,> 100 µM (inactive)
same,GI50,T47D,> 100 µM (inactive)
same,GI50,TK-10,> 100 µM (inactive)
same,GI50,U-251,> 100 µM (inactive)
same,GI50,UACC-257,> 100 µM (inactive)
same,GI50,UACC-62,> 100 µM (inactive)
same,GI50,UO-31,> 100 µM (inactive)
COc1ccc(-c2c(-c3ccc(OC)cc3)n3c(=O)n(C)c(=O)n23)cc1,GI50,786-0,> 100 µM (inactive)
same,GI50,A498,19.4 µM (inactive)
same,GI50,A549,53.3 µM (inactive)
same,GI50,ACHN,67.1 µM (inactive)
same,GI50,CAKI-1,> 100 µM (inactive)
same,GI50,CCRF-CEM,59.4 µM (inactive)
same,GI50,COLO 205,> 100 µM (inactive)
same,GI50,DU-145,15.6 µM (inactive)
same,GI50,EKVX,34.9 µM (inactive)
same,GI50,HCC 2998,> 100 µM (inactive)
same,GI50,HCT-116,> 100 µM (inactive)
same,GI50,HCT-15,81.5 µM
same,GI50,HOP-62,22.7 µM (inactive)
same,GI50,HOP-92,18.8 µM (inactive)
same,GI50,IGROV-1,> 100 µM (inactive)
same,GI50,K562,> 100 µM (inactive)
same,GI50,KM12,> 100 µM (inactive)
same,GI50,LOX IMVI,> 100 µM (inactive)
same,GI50,M14,> 100 µM (inactive)
same,GI50,MCF7,> 100 µM (inactive)
same,GI50,MDA-MB-231,> 100 µM (inactive)
same,GI50,MDA-MB-435,> 100 µM (inactive)
same,GI50,MDA-N,> 10 µM (inactive)
same,GI50,MOLT-4,> 100 µM (inactive)
same,GI50,Malme-3M,91.6 µM (inactive)
same,GI50,NCI-H226,60.4 µM (inactive)
same,GI50,NCI-H23,> 100 µM (inactive)
same,GI50,NCI-H522,> 100 µM (inactive)
same,GI50,NCI/ADR-RES,18.4 µM (inactive)
same,GI50,OVCAR-3,18.2 µM (inactive)
same,GI50,OVCAR-4,23.3 µM (inactive)
same,GI50,OVCAR-8,17.6 µM (inactive)
same,GI50,PC-3,27.4 µM (inactive)
same,GI50,RPMI-8226,76.4 µM (inactive)
same,GI50,RXF 393,76.4 µM (inactive)
same,GI50,SF-295,> 100 µM (inactive)
same,GI50,SF-539,24.6 µM (inactive)
same,GI50,SK-MEL-28,> 100 µM (inactive)
same,GI50,SK-MEL-2,43.2 µM (inactive)
same,GI50,SK-MEL-5,> 100 µM (inactive)
same,GI50,SK-OV-3,50.5 µM (inactive)
same,GI50,SN12C,34 µM (inactive)
same,GI50,SNB-19,17.1 µM (inactive)
same,GI50,SNB-75,> 100 µM (inactive)
same,GI50,SW-620,> 100 µM (inactive)
same,GI50,T47D,20.6 µM (inactive)
same,GI50,TK-10,33.3 µM (inactive)
same,GI50,U-251,> 100 µM (inactive)
same,GI50,UACC-257,50.5 µM (inactive)
same,GI50,UACC-62,30.5 µM (inactive)
same,GI50,UO-31,32.3 µM (inactive)
